This note sets out measurements from US9315475B2 (MERCK SHARP & DOHME CORP., priority 2011, dated 2016).

The target of one experiment is T1, wildtype HIV-1 protease (Human immunodeficiency virus type 1 group M subtype B, UniProt P04585).
T1 construct: the wildtype HIV-1 protease (which was expressed in Escherichia coli); made in house; host or cells: Escherichia coli
The experiment is described as follows: Assay for inhibition of microbial expressed HIV protease (Pepcleav). Type of experiment: biochemical. The conditions noted are these: wild type HIV-1 protease expressed in E. coli, peptide substrate, pH 5.5; mean of at least two independent experiments; read-out: Pepcleav. In short, it runs like this:
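E. coli-expressed wild-type HIV-1 protease (20 pM) preincubated 30 min at room temperature with inhibitor in pH 5.5 sodium acetate/NaCl/BSA buffer, then 400 μM Val-Ser-Gln-Asn-(βnaphthyl)Ala-Pro-Ile-Val added for 1 h at 30 °C. Quenched with formic acid; product quantified by LC-MS/MS peak area, indinavir internal standard.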

The test system of another experiment is HIV-1 (H9IIIB strain). Nature of the experiment: Antiviral acute infection assay in cell culture (Spread). Type of experiment: cell-based. The conditions noted are these: HIV-1 H9IIIB infection of MT-4 human T-lymphoid cells in 10% FBS, mean of at least two independent experiments. The text has this: Antiviral Assays in Cell Culture (“Spread”)
Acute Infection Assay (“Spread”) data were generated using HIV-1 (H9IIIB strain) infection of MT-4 human T-lymphoid cells in 10% FBS, and according to the methods disclosed by J. P. Vacca et al, “L-735,524: An orally bioavailable human immunodeficiency virus type 1 protease inhibitor,” Proc. Natl. Acad. Sci. USA, Vol. 91, pp. 4096-4100 (April 1994).

[1] abbreviates: Human immunodeficiency virus 1, T-lymphoid.

Usually EC50 stands for the concentration that produces a half-maximal response. Low values mean a more potent agent, high ones a less potent agent. Consider `COc1ccc([C@H](c2ccc(F)cc2)[C@H](N)C(=O)Nc2cncc(F)c2CC[C@@H]2CN[C@H](COC(=O)NCC(F)(F)F)CO2)cc1` [Example 250, (βR)-β-(4-fluorophenyl)-N-(5-fluoro-4-{2-[(2R,5S)-5-({[(2,2,2-trifluoroethyl)carbamoyl]oxy}methyl)morpholin-2-yl]ethyl}pyridin-3-yl)-O-methyl-L-tyrosinamide], for which the IC50 on wildtype HIV-1 protease came to 8.3 nM. Besides, the EC50 in the experiment on HIV-1 (H9IIIB strain) (setting [1]) was 63 nM.

Take `N[C@H](C(=O)Nc1cccc(F)c1CC[C@@H]1CN[C@H](COC(=O)NCC(F)(F)F)CO1)[C@@H](c1ccc(F)cc1)c1cc(F)cc(F)c1` [Example 251, (βS)-3,5-difluoro-β-(4-fluorophenyl)-N-(3-fluoro-2-{2-[(2R,5S)-5-({[(2,2,2-trifluoroethyl)carbamoyl]oxy}methyl)morpholin-2-yl]ethyl}phenyl)-L-phenylalaninamide]: at wildtype HIV-1 protease, the IC50 was found to be 8.2 nM. Moreover, the EC50 in the experiment with HIV-1 (H9IIIB strain) (setting [1]) was determined as 32 nM.

As for `CN1CCC(NC(=O)OC[C@@H]2CO[C@H](CCc3c(F)cncc3NC(=O)[C@@H](N)C(c3ccc(F)cc3)c3ccc(F)cc3)CN2)C1=O` (stereo partly drawn) [Example 252, 4-fluoro-N-(5-fluoro-4-{2-[(2R,5S)-5-({[(1-methyl-2-oxopyrrolidin-3-yl)carbamoyl]oxy}methyl)morpholin-2-yl]ethyl}pyridin-3-yl)-β-(4-fluorophenyl)-L-phenylalaninamide], the IC50 on wildtype HIV-1 protease came out at 7.7 nM. For the same molecule, the EC50 with HIV-1 (H9IIIB strain) (setting [1]) amounted to 160 nM.

On to `N[C@H](C(=O)Nc1cncc(F)c1CC[C@@H]1CN[C@H](COC(=O)NC2CCCOC2)CO1)C(c1ccc(F)cc1)c1ccc(F)cc1` (stereo partly drawn) [Example 253, 4-fluoro-β-(4-fluorophenyl)-N-(5-fluoro-4-{2-[(2R,5S)-5-{[(tetrahydro-2H-pyran-3-ylcarbamoyl)oxy]methyl}morpholin-2-yl]ethyl}pyridin-3-yl)-L-phenylalaninamide], for which the IC50 on wildtype HIV-1 protease amounted to 7.7 nM. Moreover, the EC50 with HIV-1 (H9IIIB strain) (setting [1]) was 24 nM.

Turning to `N[C@H](C(=O)Nc1cncc(F)c1CC[C@@H]1CN[C@H](COC(=O)NC[C@H]2CCC(=O)N2)CO1)C(c1ccc(F)cc1)c1ccc(F)cc1` [Example 254, 4-fluoro-N-(5-fluoro-4-{2-[(2R,5S)-5-{[({[(2R)-5-oxopyrrolidin-2-yl]methyl}carbamoyl)oxy]methyl}morpholin-2-yl]ethyl}pyridin-3-yl)-β-(4-fluorophenyl)-L-phenylalaninamide], the IC50 on wildtype HIV-1 protease came to 7.6 nM. For the same molecule, in the experiment with HIV-1 (H9IIIB strain) (setting [1]), the EC50 amounted to 1100 nM.

As to `N[C@H](C(=O)Nc1cncc(F)c1CC[C@@H]1CN[C@H](COC(=O)NCc2ccno2)CO1)C(c1ccc(F)cc1)c1ccc(F)cc1` [Example 255, 4-fluoro-N-(5-fluoro-4-{2-[(2R,5S)-5-({[(isoxazol-5-ylmethyl)carbamoyl]oxy}methyl)morpholin-2-yl]ethyl}pyridin-3-yl)-β-(4-fluorophenyI)-L-phenylalaninamide], at wildtype HIV-1 protease, the IC50 came out at 6.4 nM. This molecule also yielded an EC50 in the experiment with HIV-1 (H9IIIB strain) (setting [1]) of 210 nM.

`COc1ccc([C@@H](c2ccccc2)[C@H](N)C(=O)Nc2cncc(F)c2CC[C@@H]2CN[C@H](COC(=O)NCC(F)(F)F)CO2)cc1` [Example 256, (βR)-N-(5-fluoro-4-{2-[(2R,5S)-5-({[(2,2,2-trifluoroethyl)carbamoyl]oxy}methyl)morpholin-2-yl]ethyl}pyridin-3-yl)-O-methyl-β-phenyl-L-tyrosinamide]: at wildtype HIV-1 protease, the IC50 came to 5.7 nM. In addition, in the experiment with HIV-1 (H9IIIB strain) (setting [1]), the EC50 was 100 nM.

Consider `N[C@H](C(=O)Nc1cccc(F)c1CC[C@@H]1CN[C@H](COC(=O)NCC(F)(F)F)CO1)[C@H](c1ccc(F)cc1)c1cccc(Cl)c1` [Example 257, (βR)-β-(3-chlorophenyl)-4-fluoro-N-(3-fluoro-2-{2-[(2R,5S)-5-({[(2,2,2-trifluoroethyl)carbamoyl]oxy}methyl)morpholin-2-yl]ethyl}phenyl)-L-phenylalaninamide], for which, on wildtype HIV-1 protease, the IC50 came out at 5.1 nM. In the experiment on HIV-1 (H9IIIB strain) (setting [1]), this molecule gave an EC50 of 51 nM.

Turning to `NC(=O)OC[C@@H]1CO[C@H](COc2c(F)cc(F)cc2NC(=O)[C@@H](N)C(c2ccc(F)cc2)c2ccc(F)cc2)CN1` [Example 258, N-[2-({(2S,5S)-5-[(carbamoyloxy)methyl]morpholin-2-yl}methoxy)-3,5-difluorophenyl]-4-fluoro-β-(4-fluorophenyl)-L-phenylalaninamide], the IC50 at wildtype HIV-1 protease is 5 nM. The EC50 in the experiment with HIV-1 (H9IIIB strain) (setting [1]) came to 260 nM.

Turning to `N[C@H](C(=O)Nc1cncc(F)c1CC[C@@H]1CN[C@H](COC(=O)NCC(F)(F)F)CO1)[C@H](c1ccccc1)c1ccc(F)c(F)c1` [Example 259, (βR)-β-(3,4-difluorophenyl)-N-(5-fluoro-4-{2-[(2R,5S)-5-({[(2,2,2-trifluoroethyl)carbamoyl]oxy}methyl)morpholin-2-yl]ethyl}pyridin-3-yl)-L-phenylalaninamide], the IC50 at wildtype HIV-1 protease came out at 5 nM. In addition, the EC50 in the experiment with HIV-1 (H9IIIB strain) (setting [1]) is 66 nM.

As to `N[C@H](C(=O)Nc1c(Cl)cccc1OC[C@@H]1CN[C@H](COC(=O)NCC(F)(F)F)CO1)C(c1ccc(F)cc1)c1ccc(F)cc1` [Example 260, N-(2-chloro-6-{[(2S,5S)-5-({[(2,2,2-trifluoroethyl)carbamoyl]oxy}methyl)morpholin-2-yl]methoxy}phenyl)-4-fluoro-β-(4-fluorophenyl)-L-phenylalaninamide], the IC50 on wildtype HIV-1 protease was 4.8 nM. In the experiment with HIV-1 (H9IIIB strain) (setting [1]), this molecule had an EC50 of 190 nM.

Turning to `N[C@H](C(=O)Nc1c(Cl)cccc1OC[C@@H]1CN[C@H](COC(=O)NCC(F)(F)F)CO1)C(c1ccc(F)cc1)c1ccc(F)cc1` [Example 261, N-(2-chloro-6-{[(2S,5S)-5-({[(2,2,2-trifluoroethyl)carbamoyl]oxy}methyl)morpholin-2-yl]methoxy}phenyl)-4-fluoro-β-(4-fluorophenyl)-L-phenylalaninamide], the IC50 at wildtype HIV-1 protease was 4.3 nM. This molecule also displayed an EC50 with HIV-1 (H9IIIB strain) of 170 nM.

Regarding `N[C@H](C(=O)Nc1cccc(F)c1CC[C@@H]1CN[C@H](COC(=O)NCC(F)(F)F)CO1)C(c1cccc(F)c1)c1cccc(F)c1` [Example 262, 3-fluoro-β-(3-fluorophenyl)-N-(3-fluoro-2-{2-[(2R,5S)-5-({[(2,2,2-trifluoroethyl)carbamoyl]oxy}methyl)morpholin-2-yl]ethyl}phenyl)-L-phenylalaninamide], the IC50 at wildtype HIV-1 protease came out at 4 nM. Also, in the experiment with HIV-1 (H9IIIB strain) (setting [1]), the EC50 came out at 15 nM.

As to `N[C@H](C(=O)Nc1cccc(F)c1CC[C@@H]1CN[C@H](COC(=O)NCC(F)(F)F)CO1)[C@@H](c1ccc(F)cc1)c1cccc(OC(F)(F)F)c1` [Example 263, (βS)-4-fluoro-N-(3-fluoro-2-{2-[(2R,5S)-5-({[(2,2,2-trifluoroethyl)carbamoyl]oxy}methyl)morpholin-2-yl]ethyl}phenyl)-β-[3-(trifluoromethoxy)phenyl]-L-phenylalaninamide], at wildtype HIV-1 protease, the IC50 was determined as 3.7 nM. Besides, the midpoint of the response in the experiment on HIV-1 (H9IIIB strain) (setting [1]), the EC50, lay at 48 nM.

Consider `N[C@H](C(=O)Nc1cncc(F)c1CC[C@@H]1CN[C@H](COC(=O)NCC(F)(F)F)CO1)[C@H](c1ccc(F)cc1)c1ccc(C(F)(F)F)cc1` [Example 264, (βS)-β-(4-fluorophenyl)-N-(5-fluoro-4-{2-[(2R,5S)-5-({[(2,2,2-trifluoroethyl)carbamoyl]oxy}methyl)morpholin-2-yl]ethyl}pyridin-3-yl)-4-(trifluoromethyl)-L-phenylalaninamide], for which, at wildtype HIV-1 protease, the IC50 amounted to 3.6 nM. The same molecule gave an EC50 in the experiment with HIV-1 (H9IIIB strain) (setting [1]) of 77 nM.
